The text below walks through data of patent US20260226055A1, “PYRAZOLE DERIVATIVES AS PHD INHIBITORS” (Oxford University Innovation Limited, priority 2023, published 2026).

Molecules are shown by their SMILES.

The first data set deals with PHD2 (Homo sapiens, UniProt Q9GZT9). The data set is described as follows: PHD2 RF-MS hydroxylation assay. In kind it is biochemical.
Sequence of PHD2 (Q9GZT9 181-426): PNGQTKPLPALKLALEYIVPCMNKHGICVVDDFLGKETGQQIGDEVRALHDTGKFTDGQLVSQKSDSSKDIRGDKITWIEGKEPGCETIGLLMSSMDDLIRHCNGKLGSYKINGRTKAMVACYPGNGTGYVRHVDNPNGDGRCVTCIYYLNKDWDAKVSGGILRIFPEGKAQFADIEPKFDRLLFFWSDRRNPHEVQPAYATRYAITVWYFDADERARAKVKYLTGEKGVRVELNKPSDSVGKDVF
Settings: not given
The procedure: In brief, cDNA encoding for the catalytic domain of tPHD2 (181-426 residues) was cloned into the pET28a(+)/pET24a(+) vectors (Novagen), to enable production of tPHD2 (residues 181-426) protein with/without an N-terminal His6-tag. The tPHD2 (residues 181-426) encoding construct was transformed into the Escherichia coli BL21 DE3 cell line; protein production was induced with 0.5 mM […] (3-5 hr at 28° C.). […] The protein was exchanged into 50 mM Tris-HCl buffer (pH 7.5) and concentrated to % 40 mg/ml.
Tris(hydroxymethyl)aminomethane was from Fisher. […] All inhibition assays were carried out in 384-well polypropylene plates (Greiner Bio-One). […] PHD2 protein was prepared at a concentration of 300 nM in assay buffer and 25 μl dispensed across each 384-well assay plate. […] After loading the C4 SPE was washed with 0.1% formic acid in water to remove non-volatile buffer salts and then peptide was eluted from the SPE with 85% acetonitrile, 15% water containing 0.1% formic acid onto the mass spectrometer. Peptide charge states were monitored in positive mode. […] IC50 values were determined from non-linear regression plots using GraphPad prism.
SAR studies for PHD2 inhibition were carried out on the compounds of the invention. Compounds were screened against PHD2 using the RF-MS hydroxylation assay.
Regarding `O=C(NCc1ccc(-c2ccccc2)cc1)c1ccc(-n2cccn2)cc1O` [Compound 16, N-([1,1′-biphenyl]-4-ylmethyl)-2-hydroxy-4-(1H-pyrazol-1-yl)benzamide], the 50% inhibitory concentration (IC50) is over 10 µM. Same read-out and setting: next, `O=C(NCc1ccc(-c2ccccc2)cc1)c1cnc(-n2cccn2)nc1` [Compound 20, N-([1,1′-Biphenyl]-4-ylmethyl)-2-(1H-pyrazol-1-yl)pyrimidine-5-carboxamide]: over 10 µM.

`O=C(NCc1ccc(-c2ccccc2)cc1)c1ccc(-n2cccn2)nc1` [Compound 22, N-([1,1′-Biphenyl]-4-ylmethyl)-6-(1H-pyrazol-1-yl)nicotinamide]: the IC50 was over 10 µM.

Molecule `O=C(NCC1CCCCC1)c1cnc(-n2cccn2)cc1O` [Compound 44, N-(Cyclohexylmethyl)-4-hydroxy-6-(1H-pyrazol-1-yl)nicotinamide] returned an IC50 of over 10 µM. The same measure, in the same setting: next, `COc1cc(-n2cc(C(=O)NCc3ccc(-c4ccccc4)cc3)cn2)ncc1C#N` [Compound 93]: over 10 µM; `N#Cc1ccc(-n2cc(C(=O)NCc3ccc(-c4ccccc4)cc3)cn2)nc1` [Compound 97]: over 10 µM; `O=C(O)c1ccnc(-n2cc(C(=O)NCc3ccc(-c4ccccc4)cc3)cn2)c1` [Compound 103]: over 10 µM.

In turn, `O=C(Nc1ccc(-c2ccccc2)cc1)c1cnn(-c2cc(O)ccn2)c1` [Compound 108] showed a half-maximal inhibitory concentration (IC50) of over 10 µM.

The subject of the next data set is HIF1-α in Hep3B cells. The data set is described as follows: Immunoblots of Hep3B cells (HIF1-α protein levels). In kind it is cell-based. Also noted: dose or concentration left out as unconfirmed. The following applies: 3 hours. As to the method:
Cells were grown to 90% confluency.
Hep3B cells were treated with compounds 117, 119, 122 and 123 of the invention (Examples 93, 95, 98 and 99) at 100 µM (A) and 20 µM (B) PHD inhibitors for 3 hours.
(In western blotting, separated proteins are transferred to a membrane and probed.)
Turning to `O=C(NCc1ccc(-c2ccccc2)cc1)c1cnc2c(cnc3ccnn32)c1O` [Compound 117, N-([1,1′-Biphenyl]-4-ylmethyl)-6-hydroxypyrazolo[1,5-a]pyrido[3,2-e]pyrimidine-7-carboxamide], the “HIF-1α stabilisation (immunoblot)” value is “stabilise HIF-1α”. On to `O=C(Nc1ccc(-c2ccccc2)cc1)c1cnc2c(cnc3ccnn32)c1O` [Compound 119, N-([1,1′-Biphenyl]-4-yl)-6-hydroxypyrazolo[1,5-a]pyrido[3,2-e]pyrimidine-7-carboxamide], for which the “HIF-1α stabilisation (immunoblot)” value is on record as “stabilise HIF-1α”. Same read-out and setting: next, `Cc1cc2nc(C)c3c(O)c(C(=O)NCc4ccc(-c5ccccc5)cc4)cnc3n2n1` [Compound 122, N-([1,1′-Biphenyl]-4-ylmethyl)-6-hydroxy-2,5-dimethylpyrazolo[1,5-a]pyrido[3,2-e]pyrimidine-7-carboxamide]: “stabilise HIF-1α”.

Take `Cc1cc2nc(C)c3c(O)c(C(=O)NCc4ccc(C(F)(F)F)cc4)cnc3n2n1` [Compound 123, 6-Hydroxy-2,5-Dimethyl-N-(4-(trifluoromethyl)benzyl)pyrazolo[1,5-a]pyrido[3,2-e]pyrimidine-7-carboxamide]: the “HIF-1α stabilisation (immunoblot)” value is “stabilise HIF-1α”.

System in the next data set: not given
Experiment: not given
As to conditions: mouse, in vivo, ip.
For the molecule `O=C(NCC1CCC(C(F)(F)F)CC1)c1cnc(-n2cccn2)cc1O` (centres unmarked) [Compound 68, 4-Hydroxy-6-(1H-pyrazol-1-yl)-N-((4-(trifluoromethyl)cyclohexyl)methyl)nicotinamide], the adverse effects entry is listed as “no adverse effects”.

System in a further data set: not listed separately
In words: In vivo blood counts in C57BL/6 mice. As to conditions: twice daily IP, 8 days.
Description: Values are shown pre-treatment, and 4 and 8 days after treatment.
Blood samples were taken either pre-treatment, on the 4th day into treatment or on the 8th day of treatment. Blood samples were analysed using Celltac Alpha MEK-6500K.
Samples were taken either pre-treatment, on the 4th day into treatment or on the 8th day of treatment. Blood samples were analysed using Celltac Alpha MEK-6500K.
Consider `O=C(O)CNC(=O)C1C(=O)N(C2CCCCC2)C(=O)N(C2CCCCC2)C1=O` [Daprodustat], for which the adverse effects entry was “no adverse effects”.

What is called IC50 is the concentration at which inhibition is half-maximal.
